Key:
Assay type in all cases: cell-based, human
granzyme B = experiment: Granzyme B protein in supernatants by ELISA
Method: FIGS. 3A-3E depict the results of a study showing that downregulation of Cbl-b enhances the cytotoxicity of primary human NK cells. (FIGS. 3A and 3B) Primary human NK cells transduced with Cbl-b siRNA or Scr siRNA for 24 h were stimulated without (FIG. 3A) or with (FIG. 3B) a low concentration of IL-15 (2 ng/ml) for 16 h, then co-cultured with ^51Cr labeled Molm-13, MV4-11 or EOL-1 leukemia cell lines for 4 h, followed by quantification of specific tumor cell lysis. Each experiment was repeated with 6 different normal donors. (FIG. 3C) qRT-PCR was performed to quantify the granzyme B (GZMB) mRNA levels (n=8 donors) in siRNA- and Scr siRNA-transduced primary human NK cells incubated without or with IL-15 (10 ng/ml) for 16 h. (FIG. 3D) The concentration of the granzyme B protein in the supernatants of Cbl-b siRNA- and Scr siRNA-transduced primary human NK cells incubated without (688.1 pg/ml vs 525.4 pg/ml; P=0.0232) or with IL-15 (10 ng/ml) for 24 h (8789 pg/ml vs 3397 pg/ml; P=0.0232) was measured by ELISA (n=8 donors). (FIG. 3E) The level of granzyme B protein in Cbl-b siRNA- and Scr siRNA-transduced primary human NK cells incubated without or with IL-15 (10 ng/ml) for 24 h was measured by immunoblot analysis. The data are representative of three experiments. Scr-scrambled; *P<0.05, **P<0.01, ***P<0.001, ****P<0.0001 by One-way or Two-way ANOVA; ns, not significant. Data presented as mean±SEM.
ELISA. Primary NK cells were plated in an equivalent number of 100,000 cells/well in a 96-well plate in RPMI and supplemented with 10% FBS. Cells were treated with recombinant human IL-15 (10 ng/ml) for 24 h, and cell-free culture supernatant was collected and frozen at −80° C. for later use. IFN-γ concentration was measured by ELISA using anti-IFN-γ antibody from Thermo Fisher Scientific. Granzyme B concentration was measured by ELISA kit purchased from R&D.
(§1) Both groups were next incubated without or with IL-15 and co-cultured with ^51Cr labeled MV4-11, Molm-13, or EOL-1 leukemia cell lines, followed by assessment of specific lysis measured after 4 h of co-culture.

perform = experiment: Perforin mRNA by qRT-PCR in siRNA-transduced NK cells; settings: without or with IL-15 (10 ng/ml) 16 h, vs Scr siRNA
Method: FIG. 8A Primary human NK cells were transduced with Cbl-b siRNA or a scrambled siRNA (Scr siRNA) for 48 h, directly followed by immunoblot analysis to determine the efficiency of siRNA (n=3 donors). […] FIG. 8B qRT-PCR was performed to quantify the level of perform mRNA (n=7 donors) in Cbl-b siRNA- and Scr siRNA-transduced primary human cells incubated without or with IL-15 (10 ng/ml) for 16 h. FIG. 8C The perform protein level in Cbl-b siRNA- and Scr siRNA-transduced primary human NK cells incubated 24 without or with IL-15 (10 ng/ml) for 24 h was measured by immunoblot analysis. The data are representative of four experiments and are summarized in the right panel. Scr, scrambled; *P<0.05, **P<0.01; ns, not significant. Data are presented as mean±SEM.
Reverse transcription-polymerase chain reaction. Total RNA was isolated from primary NK cells with the RNeasy Mini Kit (Qiagen). Complementary DNA (cDNA) was generated by Moloney murine leukemia virus (M-MLV) reverse transcriptase (Invitrogen) and amplified by qPCR with SYBR Green PCR Master Mix (Applied Biosystems) and gene-specific primers. Relative amplification values were normalized to the amplification of GAPDH or 18S rRNA.
as §1

Mertk = Mertk phosphorylation by immunoblot in siRNA-transduced NK cells; settings: vs Scr siRNA
Method: FIGS. 5A-5D depict the results of a study showing that Cbl-b interacts with and regulates phosphorylation of Mertk in primary human NK cells. (FIG. 5A) Representative intracellular flow cytometric analysis of the TAM family receptors expression in primary human NK cells. Summarized data are shown from 6 donors. IgG1 is the isotype for Tyro3 and Axl, while IgG2 for Mertk. (FIG. 5B) The level of Mertk phosphorylation and Cbl-b in Cbl-b siRNA- or Scr siRNA-transduced primary human NK was measured by immunoblot analysis. Data presented are representative of five independent experiments. […] Data presented are representative of 4 donors performed in a similar fashion and are summarized in the panel below the representative flow dot plots. […]
FIGS. 10A-10B depict immunoblotting analysis of the phosphorylation level of Mertk (p-Mertk). (FIG. 10A) The level of Mertk phosphorylation and Cbl-b in Cbl-b siRNA- or Scr siRNA-transduced primary human NK cells was measured by immunoblot analysis. […] (FIG. 10B) The level of total Mertk expression in Cbl-b siRNA- or Scr siRNA-transduced primary human NK was measured by immunoblot analysis.
Immunoblotting. […] Densitometric analysis was performed to quantify intensity of gel bands with Image J (National Institutes of Health). […]

Cbl-b siRNA: Cbl-b-specific Accell siRNA (Dharmacon), SEQ ID NO:1, CCUUCAUGUUCAGAUGGUU (Accell modified siRNA, pattern not given here)
concentration of granzyme B protein in supernatants (granzyme B; with IL-15 (10 ng/ml) 24 h, n=8 donors): 8789 pg/mL
concentration of granzyme B protein in supernatants (granzyme B; without IL-15, n=8 donors): 688.1 pg/mL
perform mRNA (perform): did not reach a statistical significance
phosphorylation level of Mertk (p-Mertk) (Mertk): significantly increased

— patent US20240299542A1, “NATURAL KILLER CELLS ENGINEERED TO REDUCE OR ELIMINATE CBL-B AND USES THEREOF” (City of Hope, priority 2021, published 2024)
